Source: PubChem BioAssay (NCI)
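1) Cells in 96-well plates. 2) Compound, 48 h, 5 concentrations. 3) Linear interpolation between surrounding doses. 4) Unreached endpoint = highest concentration. Definition used: TGI = concentration required for complete inhibition of growth.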

Legend:
Experiment in all cases: growth of human tumour cells (NCI), 48 h
[1] = tested on: A549 NSCLC
[2] = tested on: SNB-75 CNS
[3] = tested on: SN12C renal
[4] = tested on: UO-31 renal
[5] = tested on: IGROV1 ovarian
[6] = tested on: K-562 leukemia
[7] = tested on: EKVX NSCLC
[8] = tested on: SF-295 CNS
[9] = tested on: 786-0 renal
[10] = tested on: NCI-H522 lung
[11] = tested on: NCI-H226 lung
[12] = tested on: OVCAR-5 ovarian
[13] = tested on: SNB-19 CNS
[14] = tested on: SF-539 CNS
[15] = tested on: HT29 colon
[16] = tested on: HOP-62 NSCLC
[17] = tested on: DU-145 prostate
[18] = tested on: KM12 colon
[19] = tested on: LOX IMVI melanoma
[20] = tested on: M14 melanoma
[21] = tested on: SK-MEL-5 melanoma
[22] = tested on: RPMI-8226 leukemia
[23] = tested on: OVCAR-3 ovarian
[24] = tested on: CAKI-1 renal
[25] = tested on: MCF7 breast
[26] = tested on: MOLT-4 leukemia
[27] = tested on: A498 renal
[28] = tested on: UACC-257 melanoma
[29] = tested on: RXF 393 renal
[30] = tested on: TK-10 renal
[31] = tested on: U251 CNS
[32] = tested on: SK-MEL-28 melanoma
[33] = tested on: HCT-116 colon
[34] = tested on: UACC-62 melanoma
[35] = tested on: HL-60(TB) leukemia
[36] = tested on: T-47D breast
[37] = tested on: SF-268 CNS
[38] = tested on: SW-620 colon
[39] = tested on: HS 578T breast
[40] = tested on: CCRF-CEM leukemia
[41] = tested on: ACHN renal
[42] = tested on: HCT-15 colon
[43] = tested on: NCI/ADR-RES ovarian
[44] = tested on: BT-549 breast
[45] = tested on: HCC-2998 colon
[46] = tested on: HOP-92 NSCLC
[47] = tested on: NCI-H460 lung
[48] = tested on: SR leukemia
[49] = tested on: MDA-MB-231 breast
[50] = tested on: MALME-3M melanoma
[51] = tested on: OVCAR-8 ovarian
[52] = tested on: NCI-H23 lung
[53] = tested on: MDA-N
[54] = tested on: MDA-MB-435
[55] = tested on: SK-OV-3 ovarian
[56] = tested on: PC-3 prostate
[57] = tested on: COLO 205 colon
[58] = tested on: SK-MEL-2 melanoma

Compound `CCOC(=O)C1CCCN1C(=O)c1ccccc1Cl` (stereo unspecified) has a TGI [1] of over 100 µM, a TGI [2] of over 100 µM and a TGI [3] of over 100 µM. It also gave a TGI [4] of over 100 µM, a TGI [5] of over 100 µM and a TGI [6] of over 100 µM. It also gave a TGI [7] of over 100 µM, a TGI [8] of over 100 µM and a TGI [9] of over 100 µM. For the same compound, the TGI [10] was over 100 µM, the TGI [11] was over 100 µM and the TGI [12] was over 100 µM. The TGI [13] was over 100 µM, the TGI [14] was over 100 µM and the TGI [15] was over 100 µM. The TGI [16] was over 100 µM, the TGI [17] was over 100 µM and the TGI [18] was over 100 µM. It also gave a TGI [19] of over 100 µM, a TGI [20] of over 100 µM and a TGI [21] of over 100 µM. For the same compound, the TGI [22] was over 100 µM, the TGI [23] was over 100 µM and the TGI [24] was over 100 µM. For the same compound, the TGI [25] was over 100 µM, the TGI [26] was over 100 µM and the TGI [27] was over 100 µM. For the same compound, the TGI [28] was over 100 µM, the TGI [29] was over 100 µM and the TGI [30] was over 100 µM. The TGI [31] was over 100 µM, the TGI [32] was over 100 µM and the TGI [33] was over 100 µM. The TGI [34] was 88.3 µM, the TGI [35] was over 100 µM and the TGI [36] was over 100 µM. For the same compound, the TGI [37] was over 100 µM, the TGI [38] was over 100 µM and the TGI [39] was over 100 µM. The TGI [40] was over 100 µM, the TGI [41] was over 100 µM and the TGI [42] was over 100 µM. It also gave a TGI [43] of over 100 µM, a TGI [44] of over 100 µM and a TGI [45] of over 100 µM. The TGI [46] was over 100 µM, the TGI [47] was over 100 µM and the TGI [48] was over 100 µM. For the same compound, the TGI [49] was over 100 µM, the TGI [50] was over 100 µM and the TGI [51] was over 100 µM. The TGI [52] was over 100 µM, the TGI [53] was over 100 µM and the TGI [54] was over 100 µM.

Work on `COc1ccc(C2NC(N)=C(C#N)C3=C2C(C)CCC3)cc1OC` (stereo unspecified) yielded a TGI [2] of 16.7 µM, a TGI [3] of over 100 µM and a TGI [4] of over 100 µM. For the same compound, the TGI [5] was over 100 µM, the TGI [6] was over 100 µM and the TGI [7] was over 100 µM. For the same compound, the TGI [8] was over 100 µM, the TGI [9] was over 100 µM and the TGI [55] was over 100 µM. For the same compound, the TGI [11] was over 100 µM, the TGI [12] was over 100 µM and the TGI [13] was over 100 µM. It also gave a TGI [14] of over 100 µM, a TGI [15] of over 100 µM and a TGI [16] of 75.7 µM. For the same compound, the TGI [17] was over 100 µM, the TGI [18] was over 100 µM and the TGI [19] was over 100 µM. It also gave a TGI [20] of over 100 µM, a TGI [21] of over 100 µM and a TGI [22] of over 100 µM. For the same compound, the TGI [23] was over 100 µM, the TGI [24] was over 100 µM and the TGI [25] was over 100 µM. The TGI [26] was over 100 µM, the TGI [28] was over 100 µM and the TGI [29] was over 100 µM. It also gave a TGI [30] of over 100 µM, a TGI [31] of over 100 µM and a TGI [32] of over 100 µM. For the same compound, the TGI [33] was over 100 µM, the TGI [34] was over 100 µM and the TGI [35] was over 100 µM. It also gave a TGI [36] of over 100 µM, a TGI [37] of over 100 µM and a TGI [38] of over 100 µM. For the same compound, the TGI [56] was over 100 µM, the TGI [39] was over 100 µM and the TGI [40] was over 100 µM. The TGI [41] was over 100 µM, the TGI [42] was over 100 µM and the TGI [43] was over 100 µM. It also gave a TGI [44] of over 100 µM, a TGI [57] of over 100 µM and a TGI [58] of over 100 µM. It also gave a TGI [48] of 23 µM, a TGI [49] of over 100 µM and a TGI [50] of over 100 µM. The TGI [51] was over 100 µM, the TGI [52] was over 100 µM and the TGI [53] was over 100 µM. The TGI [54] was over 100 µM.
